According to patent US20220336811A1, “CATHODE ACTIVE MATERIAL FOR SECONDARY BATTERY COMPRISING CHARGE TRANSFER COMPLEX AND METHOD FOR MANUFACTURING SAME” (SEOUL NATIONAL UNIVERSITY R&DB FOUNDATION, priority 2019, published 2022):
Values after ≈ are worked out from the molar mass of the structure shown.

Conditions: 3 h
Procedure: The synthesized cathode mixtures were rolled with a stainless steel (SUS) rod and cut to a size of 1.5 cm×1.5 cm to produce cathodes for secondary batteries.
The cathodes produced in Embodiment 2 were put in 4 mL of a tetraethyleneglycol dimethylether (TEGDME) solvent, and stored in a 60° C. oven for 3 hours, and then solubilities of the cathode active materials for a solvent in an electrolyte were measured through ultraviolet-visible (UV-Vis) spectroscopy by using the used solvent.

Structure (SMILES)	solubility
N#CC(C#N)=c1ccc(=C(C#N)C#N)cc1 [compound 2, 7,7,8,8-tetracyanoquinodimethane]	5.625 mM (≈ 1150 µg/mL)
c1ccc2nc3ccccc3nc2c1 [compound 1, phenazine]	9.087 mM (≈ 1640 µg/mL)
